Article PMC10355216, “The C-terminal tail of CSNAP attenuates the CSN complex” (Life Science Alliance, 2023)

How the values were obtained:
[1] = tested on: CSN^ΔCSNAP complex; assay: Peptide array screen of C-CSNAP peptides with rCSN^ΔCSNAP; format: binding; conditions: average of 5 experiments;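 also: Array-printed peptides incubated with 0.5 µM CSN^ΔCSNAP, bound complex detected by anti-CSN3 antibody plus HRP-linked secondary, spot intensity expressed relative to the parent reference peptide spot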
Experimental: Peptide array screen of modified C-CSNAP peptides. C-CSNAP peptide and its derivatives were printed on a microarray. The array was blocked and incubated with or without the CSN∆CSNAP complex and probed using an anti-CSN3 antibody and HRP-conjugated secondary antibody. To assess non-specific binding of the antibodies to the array, anti-CSN3 and anti-GAR-HRP were used without the addition of the COP9 signalosome complex (CSN). Signal intensity of each spot was measured and normalized to the intensity of the spot of C-CSNAP (A1). Measured values for each spot were averaged from six arrays and plotted with standard errors SEM.
(§1) Intensity values are normalized to the intensity of the 16AA C-CSNAP peptide (A1) on each array from three independent experiments in duplicates, and averages from the six replicates are calculated with SEM.
(§2) Optimization of C-CSNAP sequence for enhanced binding to recombinant CSN^ΔCSNAP was screened by printing the modified sequences of CSNAP or C-CSNAP (Phe to Trp, Asp to Glu, Ala screen, D-amino acid screen, N-α-methylation, and Aib incorporation on INTAVIS Celluspots array [2 × 384spots]). The array was blocked with 5% skim milk in TBS-0.5% Tween 20 (TBS-T) for 4 h at room temperature, washed three times in TBS-T, and then incubated with 0.5 μM CSN^ΔCSNAP in 5% milk–TBS-T. Bound CSN^ΔCSNAP was visualized by incubating with anti-CSN3 (ab79698) antibody (1:10,000, overnight) and goat-anti-rabbit-HRP secondary antibody (1:10,000, 1 h).

[2] = tested on: recombinant CSN complex; assay: Peptide array screen of C-CSNAP peptides with recombinant CSN (rCSN^WT); format: binding; conditions: for Average fold change, intensities as fold of C-CSNAP (A1): rCSN^WT on INTAVIS Celluspots array, anti-CSN3 and HRP secondary antibody, average of six replicates (three independent experiments in duplicates); for Average fold change: peptide array with rCSN, average of 3 experiments, left and right (n = 6), fold of C-CSNAP (A1);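 as to all read-outs here: densitometric signal of CSN bound to each synthesized peptide spot, with an antibody-only array lacking CSN run to exclude non-specific binding, higher values meaning stronger binding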
Experimental: To generate an optimized C-CSNAP peptide, we used the peptide array methodology. The array was designed to screen for the optimal peptide length, sequence, and stability (Fig 3A). A recombinant CSN complex was expressed, purified, and screened for binding to the peptide array by using an anti-CSN3 antibody. To rule out non-specific binding of the probing antibody, a control experiment was carried out without the addition of the CSN complex (Fig 3A right panel).
C-CSNAP peptide and its derivatives were synthesized on a microarray. The array was blocked and incubated with or without the COP9 signalosome complex (CSN) and probed using an anti-CSN3 antibody and HRP-conjugated secondary antibody. To assess non-specific binding of the antibodies to the array, anti-CSN3 and anti-GAR–HRP were used without the addition of the CSN. Signal intensity of each spot was measured and normalized to the intensity of the spot of C-CSNAP (A1). Measured values for each spot were averaged from six arrays and plotted with SEM. […] (A) A representative image of the peptide array (left) and the background (right). (B) Elongation of the C-terminal 16 amino acids (green) with one residue at a time based on the full-length sequence. […] (F) Single D-amino acid substitution at various positions.
as §1, §2

[3] = peptide array, rCSN^ΔCSNAP, left and right spots
[4] = peptide array with rCSN^ΔCSNAP, left and right (n = 10), fold of C-CSNAP (A1)

EFFNDFEDLFDDEDIQ [Position D14, C-CSNAP, Asp to Glu substitution D42,54E]
Average fold change [1, 3]: 1.0310 fold of C-CSNAP (A1)
Average fold change, intensities as fold of C-CSNAP (A1) [2]: 0.7060 fold of C-CSNAP (A1)

EFFNDFEDLFDEDDIQ [Position D13, C-CSNAP, Asp to Glu substitution D42,53E]
Average fold change [1, 3]: 1.1346 fold of C-CSNAP (A1)
Average fold change, intensities as fold of C-CSNAP (A1) [2]: 0.7560 fold of C-CSNAP (A1)

EFFNDFEDLFEEDEIQ [D42,52,53,55E]
Average fold change [1, 3]: 1.0660 fold of C-CSNAP (A1)
Average fold change [2]: 0.6502 fold

EFFNDFEDLFEEEDIQ [D42,52,53,54E]
Average fold change [1, 3]: 1.1111 fold of C-CSNAP (A1)
Average fold change [2]: 0.7432 fold

EFFNDFEELFDDDDIQ [Position D11, C-CSNAP, Asp to Glu substitution D42,49E]
Average fold change [1, 3]: 1.0773 fold of C-CSNAP (A1)
Average fold change, intensities as fold of C-CSNAP (A1) [2]: 0.8480 fold of C-CSNAP (A1)

EFFNDFEELFDDDEIQ [Position E12, C-CSNAP, Asp to Glu substitution D42,49,55E]
Average fold change [1, 3]: 0.9711 fold of C-CSNAP (A1)
Average fold change, intensities as fold of C-CSNAP (A1) [2]: 0.6694 fold of C-CSNAP (A1)

EFFNDFEELFDDEDIQ [Position E11, C-CSNAP, Asp to Glu substitution D42,49,54E]
Average fold change [1, 3]: 0.8932 fold of C-CSNAP (A1)
Average fold change, intensities as fold of C-CSNAP (A1) [2]: 0.6850 fold of C-CSNAP (A1)

EFFNDFEELFDEDDIQ [Position E10, C-CSNAP, Asp to Glu substitution D42,49,53E]
Average fold change [1, 3]: 1.1579 fold of C-CSNAP (A1)
Average fold change, intensities as fold of C-CSNAP (A1) [2]: 0.6945 fold of C-CSNAP (A1)

EFFNDFEELFEDDDIQ [E 9, C-CSNAP, Asp to Glu substitution D42,49,52E]
Average fold change [1, 3]: 1.0112 fold of C-CSNAP (A1)
Average fold change, intensities as fold of C-CSNAP (A1) [2]: 0.6782 fold of C-CSNAP (A1)

EFFNDFEELFEDDEIQ [D42,49,52,55E]
Average fold change [1, 3]: 0.9030 fold of C-CSNAP (A1)
Average fold change [2]: 0.7529 fold

EFFNDFEELFEDEDIQ [D42,49,52,54E]
Average fold change [1, 3]: 1.0950 fold of C-CSNAP (A1)
Average fold change [2]: 0.7100 fold

EFFNDFEELFEEDDIQ [D42,49,52,53E]
Average fold change [1, 3]: 0.8283 fold of C-CSNAP (A1)
Average fold change [2]: 0.7257 fold

EFFNDFEELFEEEEIQ [D42,49,52,53,54,55E]
Average fold change [1, 3]: 0.9207 fold of C-CSNAP (A1)
Average fold change [2]: 0.6132 fold

EFFNEFEDLFDDDDIQ [Position D10, C-CSNAP, Asp to Glu substitution D42,46E]
Average fold change [1, 3]: 1.0622 fold of C-CSNAP (A1)
Average fold change, intensities as fold of C-CSNAP (A1) [2]: 0.8862 fold of C-CSNAP (A1)

EFFNEFEDLFDDDEIQ [E 8, C-CSNAP, Asp to Glu substitution D42,46,55E]
Average fold change [1, 3]: 0.9227 fold of C-CSNAP (A1)
Average fold change, intensities as fold of C-CSNAP (A1) [2]: 0.7616 fold of C-CSNAP (A1)

EFFNEFEDLFDDEDIQ [E 7, C-CSNAP, Asp to Glu substitution D42,46,54E]
Average fold change [1, 3]: 1.1480 fold of C-CSNAP (A1)
Average fold change, intensities as fold of C-CSNAP (A1) [2]: 0.6639 fold of C-CSNAP (A1)

EFFNEFEDLFDEDDIQ [E 6, C-CSNAP, Asp to Glu substitution D42,46,53E]
Average fold change [1, 3]: 0.9657 fold of C-CSNAP (A1)
Average fold change, intensities as fold of C-CSNAP (A1) [2]: 0.7001 fold of C-CSNAP (A1)

EFFNEFEDLFEDDDIQ [E 5, C-CSNAP, Asp to Glu substitution D42,46,52E]
Average fold change [1, 3]: 1.0465 fold of C-CSNAP (A1)
Average fold change, intensities as fold of C-CSNAP (A1) [2]: 0.8794 fold of C-CSNAP (A1)

EFFNEFEDLFEDDDIQ [Position D12, C-CSNAP, Asp to Glu substitution D42,52E]
Average fold change [1, 3]: 1.0147 fold of C-CSNAP (A1)
Average fold change, intensities as fold of C-CSNAP (A1) [2]: 0.7025 fold of C-CSNAP (A1)

EFFNEFEELFDDDDIQ [E 4, C-CSNAP, Asp to Glu substitution D42,46,49E]
Average fold change [1, 3]: 0.8106 fold of C-CSNAP (A1)
Average fold change, intensities as fold of C-CSNAP (A1) [2]: 0.8374 fold of C-CSNAP (A1)

EFFNEFEELFDDDEIQ [D42,46,49,55E]
Average fold change [1, 3]: 0.8257 fold of C-CSNAP (A1)
Average fold change [2]: 0.5938 fold

EFFNEFEELFDDEDIQ [D42,46,49,54E]
Average fold change [1, 3]: 1.0465 fold of C-CSNAP (A1)
Average fold change [2]: 0.5426 fold

EFFNEFEELFDEDDIQ [D42,46,49,53E]
Average fold change [1, 3]: 1.2266 fold of C-CSNAP (A1)
Average fold change [2]: 0.3807 fold

EFFNEFEELFDEEEIQ [D42,46,49,53,54,55E]
Average fold change [1, 3]: 1.0322 fold of C-CSNAP (A1)
Average fold change [2]: 0.3621 fold

EFFNEFEELFEDDDIQ [D42,46,49,52E]
Average fold change [1, 3]: 1.0318 fold of C-CSNAP (A1)
Average fold change [2]: 0.5168 fold

EFFNEFEELFEDDEIQ [D42,46,49,52,55E]
Average fold change [1, 3]: 0.9893 fold of C-CSNAP (A1)
Average fold change [2]: 0.5210 fold

EFFNEFEELFEDEDIQ [D42,46,49,52,54E]
Average fold change [1, 3]: 0.9563 fold of C-CSNAP (A1)
Average fold change [2]: 0.5967 fold

EFFNEFEELFEDEEIQ [D42,46,49,52,54,55E]
Average fold change [1, 3]: 1.1157 fold of C-CSNAP (A1)
Average fold change [2]: 0.2605 fold

EFFNEFEELFEEDDIQ [D42,46,49,52,53E]
Average fold change [1, 3]: 1.2332 fold of C-CSNAP (A1)
Average fold change [2]: 0.6954 fold

EFFNEFEELFEEEDIQ [D42,46,49,52,53,55E]
Average fold change [1, 3]: 1.2784 fold of C-CSNAP (A1)
Average fold change [2]: 0.4075 fold

EFFNEFEELFEEEDIQ [D42,46,49,52,53, 54E]
Average fold change [1, 3]: 0.9285 fold of C-CSNAP (A1)
Average fold change [2]: 0.5691 fold

EFFNEFEELFEEEEIQ [D42,46,49,52,53,54,56E]
Average fold change [1, 3]: 1.1160 fold of C-CSNAP (A1)
Average fold change [2]: 0.5923 fold

EGAGPYVDLDEAGGSTGLLMDLAANEKAVHADFFNDFEDLFDDDDIQ [B 8, CSNAP residues 11-57]
Average fold change [1, 4]: 0.9764 fold
Average fold change, intensities as fold of C-CSNAP (A1) [2]: 0.8775 fold of C-CSNAP (A1)

EMFPEGAGPYVDLDEAGGSTGLLMDLAANEKAVHADFFNDFEDLFDDDDIQ [Position B12, CSNAP residues 7-57]
Average fold change [1, 4]: 1.1057 fold
Average fold change, intensities as fold of C-CSNAP (A1) [2]: 0.8904 fold of C-CSNAP (A1)

GAGPYVDLDEAGGSTGLLMDLAANEKAVHADFFNDFEDLFDDDDIQ [B 7, CSNAP residues 12-57]
Average fold change [1, 4]: 1.0720 fold
Average fold change, intensities as fold of C-CSNAP (A1) [2]: 1.1696 fold of C-CSNAP (A1)

GGSTGLLMDLAANEKAVHADFFNDFEDLFDDDDIQ [Position A20, CSNAP residues 23-57]
Average fold change [1, 4]: 1.1737 fold
Average fold change, intensities as fold of C-CSNAP (A1) [2]: 0.8793 fold of C-CSNAP (A1)

GLLMDLAANEKAVHADFFNDFEDLFDDDDIQ [Position A16, CSNAP residues 27-57]
Average fold change [1, 4]: 1.2168 fold
Average fold change, intensities as fold of C-CSNAP (A1) [2]: 1.0167 fold of C-CSNAP (A1)

GPYVDLDEAGGSTGLLMDLAANEKAVHADFFNDFEDLFDDDDIQ [B 5, CSNAP residues 14-57]
Average fold change [1, 4]: 0.9816 fold
Average fold change, intensities as fold of C-CSNAP (A1) [2]: 1.1075 fold of C-CSNAP (A1)

HADFFNDFEDLFDDDDIQ [A 3, CSNAP residues 40-57]
Average fold change [1, 4]: 0.8215 fold
Average fold change, intensities as fold of C-CSNAP (A1) [2]: 1.0326 fold of C-CSNAP (A1)

KAVHADFFNDFEDLFDDDDIQ [A 6, CSNAP residues 37-57]
Average fold change [1, 4]: 0.9179 fold
Average fold change, intensities as fold of C-CSNAP (A1) [2]: 1.1025 fold of C-CSNAP (A1)

KPAVDEMFPEGAGPYVDLDEAGGSTGLLMDLAANEKAVHADFFNDFEDLFDDDDIQ [Position B17, CSNAP residues 2-57]
Average fold change [1, 4]: 1.3898 fold
Average fold change, intensities as fold of C-CSNAP (A1) [2]: 1.0902 fold of C-CSNAP (A1)

LAANEKAVHADFFNDFEDLFDDDDIQ [Position A11, CSNAP residues 32-57]
Average fold change [1, 4]: 1.1791 fold
Average fold change, intensities as fold of C-CSNAP (A1) [2]: 1.1357 fold of C-CSNAP (A1)

LLMDLAANEKAVHADFFNDFEDLFDDDDIQ [Position A15, CSNAP residues 28-57]
Average fold change [1, 4]: 1.2034 fold
Average fold change, intensities as fold of C-CSNAP (A1) [2]: 0.9771 fold of C-CSNAP (A1)

LMDLAANEKAVHADFFNDFEDLFDDDDIQ [Position A14, CSNAP residues 29-57]
Average fold change [1, 4]: 1.0726 fold
Average fold change, intensities as fold of C-CSNAP (A1) [2]: 0.9262 fold of C-CSNAP (A1)

STGLLMDLAANEKAVHADFFNDFEDLFDDDDIQ [Position A18, CSNAP residues 25-57]
Average fold change [1, 4]: 1.3562 fold
Average fold change, intensities as fold of C-CSNAP (A1) [2]: 0.9600 fold of C-CSNAP (A1)

VDLDEAGGSTGLLMDLAANEKAVHADFFNDFEDLFDDDDIQ [B 2, CSNAP residues 17-57]
Average fold change [1, 4]: 0.8221 fold
Average fold change, intensities as fold of C-CSNAP (A1) [2]: 0.7909 fold of C-CSNAP (A1)

VHADFFNDFEDLFDDDDIQ [A 4, CSNAP residues 39-57]
Average fold change [1, 4]: 0.9552 fold
Average fold change, intensities as fold of C-CSNAP (A1) [2]: 1.1190 fold of C-CSNAP (A1)

YVDLDEAGGSTGLLMDLAANEKAVHADFFNDFEDLFDDDDIQ [B 3, CSNAP residues 16-57]
Average fold change [1, 4]: 0.9215 fold
Average fold change, intensities as fold of C-CSNAP (A1) [2]: 1.1108 fold of C-CSNAP (A1)
